Source: US9845319B2, “Amide substituted thiazoles as modulators of RORyt” (Janssen Pharmaceutica NV, priority 2014, dated 2017)

Assays:
[1] = biological target: T1, human RORγt ligand binding domain (RORγt LBD) (Homo sapiens, UniProt P51449); assay: RORγt ThermoFluor assay; details: estimated from thermal shift concentration response
T1 construct: His-tag (N); TurboTEV protease cleavage site (ENLYFQG) (N); made in house; host or cells: E. coli (pHIS1, a modified pET expression vector)
T1 sequence (P51449 with tags, fused parts or gaps): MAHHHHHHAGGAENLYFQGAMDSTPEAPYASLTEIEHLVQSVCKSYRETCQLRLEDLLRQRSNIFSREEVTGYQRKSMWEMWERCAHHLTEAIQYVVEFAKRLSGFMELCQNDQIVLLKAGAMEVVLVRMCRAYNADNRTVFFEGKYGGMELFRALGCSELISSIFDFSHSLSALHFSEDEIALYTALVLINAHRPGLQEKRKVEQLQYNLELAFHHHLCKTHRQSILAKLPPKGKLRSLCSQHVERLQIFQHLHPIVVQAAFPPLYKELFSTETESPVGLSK
Summary of the method: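 Thermal shift of RORγt LBD (0.065 mg/mL) with 60 μM 1,8-ANS in 100 mM Hepes pH 7.0, NaCl, GSH, 0.002% Tween-20, heated at 1° C/min. ANS fluorescence tracked versus temperature; ΔTm relative to DMSO wells. Compounds serially diluted 1:2 from 10 mM DMSO stock.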

[2] = tested on: IL-17 production by CD4 T cells; assay: Human Th17 Assay; assay type: cell-based; details: 72 h; IL-17 in supernatant, 3 days, human CD4+ T cells; read-out: Human Th17 Assay, IC50
Procedure: The human Th17 assay tests the effect of RORγt modulatory compounds on IL-17 production by CD4 T cells under conditions which favor Th17 differentiation. Total CD4^+ T cells were isolated from the peripheral blood mononuclear cells (PBMC) of healthy donors using a CD4^+ T cell isolation kit II, following the manufacturer's instructions (Miltenyi Biotec). […] 50 μL of compound at titrated concentrations in DMSO were added into each well at final DMSO concentration at 0.2%. Cells were incubated for 1 hour, then 50 μL of Th17 cell differentiation medium was added to each well. The final concentrations of antibodies and cytokines (R&D Systems) in differentiation medium were: 3×10^6/mL anti-CD3/CD28 beads (prepared using human T cell activation/expansion kit, Miltenyi Biotec), 10 μg/mL anti-IL4, 10 μg/mL anti-IFNγ, 10 ng/mL IL1β, 10 ng/mL IL23, 50 ng/mL IL6, 3 ng/mL TGFβ and 20 U/mL IL2. Cells were cultured at 37° C. and 5% CO2 for 3 days. Supernatants were collected and the accumulated IL-17 in culture was measured by using MULTI-SPOT® Cytokine Plate following manufacture's instruction (Meso Scale Discovery). The plate was read using Sector Imager 6000, and IL-17 concentration was extrapolated from the standard curve. The IC50s were determined by GraphPad.

full-length human RORγt [3] = biological target: T2, full-length human RORγt (Homo sapiens, UniProt P51449); assay: RORγt (full-length human) Reporter Assay, Conditions A; assay type: cell-based; details: for IC50: HEK293T cells, GAL4-DBD-RORγt, luciferase, read-out: RORγt (FL) Reporter Assay A, IC50; for inhibition at 2 µM: read-out: RORγt (FL) Reporter Assay A, % inhibition (* at 2 μM), 2 μM compound concentration (footnote *); for inhibition at 6 µM: read-out: RORγt (FL) Reporter Assay A, % inhibition @ 6 μM, 6 μM compound
T2 construct: expressed in transfected cells; host or cells: HEK293T, transiently transfected with pCMV-BD-ROR
T2 sequence (P51449 1-497 isoform P51449-2): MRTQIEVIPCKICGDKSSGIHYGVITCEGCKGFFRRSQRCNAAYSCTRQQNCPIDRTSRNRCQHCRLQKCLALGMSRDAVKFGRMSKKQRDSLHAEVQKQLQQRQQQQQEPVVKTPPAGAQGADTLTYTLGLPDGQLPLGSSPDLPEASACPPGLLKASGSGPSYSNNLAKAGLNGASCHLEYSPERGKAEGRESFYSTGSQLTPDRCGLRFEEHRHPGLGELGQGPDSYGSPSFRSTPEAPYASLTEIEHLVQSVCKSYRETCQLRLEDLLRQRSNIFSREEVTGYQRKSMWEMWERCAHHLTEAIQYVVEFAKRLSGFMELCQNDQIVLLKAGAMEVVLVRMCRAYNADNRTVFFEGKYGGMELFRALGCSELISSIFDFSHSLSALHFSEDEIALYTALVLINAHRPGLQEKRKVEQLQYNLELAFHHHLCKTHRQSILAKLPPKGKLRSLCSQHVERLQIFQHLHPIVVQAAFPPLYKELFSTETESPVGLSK
Summary of the method: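 Reporter cells lysed after 16–20 h compound exposure; firefly and Renilla luciferase luminescence measured. Firefly signal normalised to DMSO and saturating reference compound, then to Renilla; IC50 from normalised data versus concentration, percent inhibition relative to DMSO.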

full-length human RORγt [4] = biological target: T2, full-length human RORγt; assay: RORγt (full-length human) Reporter Assay, Conditions B or C; assay type: cell-based; details: for IC50: HEK293T cells, GAL4-DBD-RORγt, luciferase, read-out: RORγt (FL) Reporter Assay B or C, IC50; for inhibition at 6 µM: read-out: RORγt (FL) Reporter Assay B or C, % inhibition @ 6 μM, 6 μM compound
Procedure: HEK293T cells were plated at 35,000 per well in 96-well plate in medium of DMEM with 10% FBS. […] After overnight (16 to 20 hours) incubation, media were removed and cells were lysed with 50 μL Glo Lysis Buffer (Promega) for 10-15 minutes followed by 10 minute incubation with 50 uL Dual Glo reagent (Promega) at room temperature. Firefly luciferase luminescence was measured using a BMG Pherastar plate reader. To each well, 50 uL Stop and Glo reagent was added and incubated for 10 minutes at room temperature. Renilla luminescence was measured using a BMG Pherastar plate reader. To calculate the effect of compounds on RORγt activity, firefly values were normalized against values of DMSO only and values of reference compound at saturating concentration, then further normalized against Renilla signals. IC50s were generated by plotting final Renilla normalized data against compound concentration and percent inhibition was calculated against DMSO control. […] HEK293T cells were plated at 8750 cells per well in 384-well plate in medium of DMEM with 10% FBS. […] After overnight (16 to 20 hours) incubation, media were removed and cells were lysed with 20 μL Glo Lysis Buffer (Promega) for 10-15 minutes followed by 10 minute incubation with 20 uL Dual Glo reagent (Promega) at room temperature. Firefly luciferase luminescence was measured using a BMG Pherastar plate reader. To each well, 20 uL Stop and Glo reagent was added and incubated for 10 minutes at room temperature. Renilla luminescence was measured using a BMG Pherastar plate reader. To calculate the effect of compounds on RORγt activity, firefly values were normalized against values of DMSO only and values of reference compound at saturating concentration, then further normalized against Renilla signals. IC50s were generated by plotting final Renilla normalized data against compound concentration and percent inhibition was calculated against DMSO control.

Structure (SMILES) | Kd [1] | IC50 [2] | IC50 (full-length human RORγt [3]) | inhibition at 2 µM (full-length human RORγt [3]) | IC50 (full-length human RORγt [4]) | inhibition at 2 µM (full-length human RORγt [4]; read-out: RORγt (FL) Reporter Assay B or C, % inhibition (* at 2 μM), 2 μM compound concentration (footnote *)) | inhibition at 6 µM (full-length human RORγt [3]) | inhibition at 6 µM (full-length human RORγt [4])
C[C@H]1CCCN1C(=O)c1nc(-c2nnc(C(C)(C)O)o2)sc1-c1ccc(C(O)(C(F)(F)F)C(F)(F)F)cc1C(F)(F)F [Example 7/1, (S)-(5-(4-(1,1,1,3,3,3-hexafluoro-2-hydroxypropan-2-yl)-2-(trifluoromethyl)phenyl)-2-(5-(2-hydroxypropan-2-yl)-1,3,4-oxadiazol-2-yl)thiazol-4-yl)(2-methylpyrrolidin-1-yl)methanone] | 1 nM | 64 nM | 38 nM | 102% | 6 nM | 108% | – | –
CC[C@H](NS(=O)(=O)c1ccc(-c2sc(-c3noc(CC(C)(C)C(=O)O)n3)nc2C(=O)N2CCC(F)(F)CC2)c(OC(F)(F)F)c1)C(F)(F)F [Example 10/2, (S)-3-(3-(4-(4,4-Difluoropiperidine-1-carbonyl)-5-(4-(N-(1,1,1-trifluorobutan-2-yl)sulfamoyl)-2-(trifluoromethoxy)phenyl)thiazol-2-yl)-1,2,4-oxadiazol-5-yl)-2,2-dimethylpropanoic acid] | 0.04 nM | 76 nM | 57 nM | – | – | – | 106% | –
CC[C@H](NS(=O)(=O)c1ccc(-c2sc(-c3nnn[nH]3)nc2C(=O)N2CCCC[C@@H]2C)c(Cl)c1Cl)C(F)(F)F [Example 15, 2,3-Dichloro-4-(4-((S)-2-methylpiperidine-1-carbonyl)-2-(1H-tetrazol-5-yl)thiazol-5-yl)-N—((S)-1,1,1-trifluorobutan-2-yl)benzenesulfonamide] | 0.64 nM | 6000 nM | 1900 nM | – | – | – | 59% | –
C[C@H](NS(=O)(=O)c1ccc(-c2sc(-c3cc(CC(C)(C)C(=O)O)on3)nc2C(=O)N2CCC(F)(F)CC2)c(C(F)F)c1F)C(F)(F)F [Example 18, (S)-3-(3-(5-(2-(Difluoromethyl)-3-fluoro-4-(N-(1,1,1-trifluoropropan-2-yl)sulfamoyl)phenyl)-4-(4,4-difluoropiperidine-1-carbonyl)thiazol-2-yl)isoxazol-5-yl)-2,2-dimethylpropanoic acid] | 3.7 nM | 410 nM | 350 nM | – | – | – | 103% | –
C[C@H](NS(=O)(=O)c1ccc(-c2sc(-c3cc(CC(C)(C)C(=O)O)on3)nc2C(=O)N2CC(F)(F)C[C@@H]2C)c(C(F)F)c1F)C(F)(F)F [Example 18/1, 3-(3-(4-((S)-4,4-Difluoro-2-methylpyrrolidine-1-carbonyl)-5-(2-(difluoromethyl)-3-fluoro-4-(N—((S)-1,1,1-trifluoropropan-2-yl)sulfamoyl)phenyl)thiazol-2-yl)isoxazol-5-yl)-2,2-dimethylpropanoic acid] | 5.6 nM | 470 nM | 170 nM | – | – | – | 104% | –
CC[C@H](NS(=O)(=O)c1ccc(-c2sc(-c3cccc(CC(C)(C)C(=O)O)n3)nc2C(=O)N2CCC(F)(F)CC2)c(C(F)F)c1F)C(F)(F)F [Example 19, (S)-3-(6-(5-(2-(Difluoromethyl)-3-fluoro-4-(N-(1,1,1-trifluorobutan-2-yl)sulfamoyl)phenyl)-4-(4,4-difluoropiperidine-1-carbonyl)thiazol-2-yl)pyridin-2-yl)-2,2-dimethylpropanoic acid] | 0.013 nM | 9 nM | 8 nM | 99% | – | – | – | –
C[C@H]1CCCN1C(=O)c1nc(-c2nnc(C(C)(C)O)n2C)sc1-c1ccc(C(O)(C(F)(F)F)C(F)(F)F)cc1C(F)(F)F [Example 22, (S)-(5-(4-(1,1,1,3,3,3-Hexafluoro-2-hydroxypropan-2-yl)-2-(trifluoromethyl)phenyl)-2-(5-(2-hydroxypropan-2-yl)-4-methyl-4H-1,2,4-triazol-3-yl)thiazol-4-yl)(2-methylpyrrolidin-1-yl)methanone] | 5 nM | – | 110 nM | 99% | 83 nM | – | – | 87%
C[C@H](NS(=O)(=O)c1ccc(-c2sc(-c3nnc(C(C)(C)O)n3C3CC3)nc2C(=O)N2CCC(F)(F)CC2)c(Cl)c1Cl)C(F)(F)F [Example 23, (S)-2,3-Dichloro-4-(2-(4-cyclopropyl-5-(2-hydroxypropan-2-yl)-4H-1,2,4-triazol-3-yl)-4-(4,4-difluoropiperidine-1-carbonyl)thiazol-5-yl)-N-(1,1,1-trifluoropropan-2-yl)benzenesulfonamide] | 3.1 nM | – | – | – | 40 nM | – | – | 109%
Cc1c(S(=O)(=O)N[C@@H](C)C(F)(F)F)ccc(-c2sc(-c3nnc(C(C)(C)O)o3)nc2C(=O)N2CCC(F)(F)CC2)c1Cl [Example 27, 3-Chloro-4-(4-(4,4-difluoropiperidine-1-carbonyl)-2-(5-(2-hydroxypropan-2-yl)-1,3,4-oxadiazol-2-yl)thiazol-5-yl)-2-methyl-N—((S)-1,1,1-trifluoropropan-2-yl)benzenesulfonamide] | 0.38 nM | 9 nM | 30 nM | – | – | – | 107% | –
